# Experimental data from ChEMBL document CHEMBL1201862, “PubChem BioAssay data set” (2004).
# Active and inactive are the calls of the source.
# Key:
# [1] = target: T1, Rac GTPase-activating protein 1 (Homo sapiens, UniProt Q9H0H5); assay: blockers of MgcRacGAP-driven Rac1 GTP hydrolysis – biochemical, ADP Hunter fluorescence, primary and confirmatory, confirmation (AID 624330); format: functional
# T1 sequence (Q9H0H5 whole entry): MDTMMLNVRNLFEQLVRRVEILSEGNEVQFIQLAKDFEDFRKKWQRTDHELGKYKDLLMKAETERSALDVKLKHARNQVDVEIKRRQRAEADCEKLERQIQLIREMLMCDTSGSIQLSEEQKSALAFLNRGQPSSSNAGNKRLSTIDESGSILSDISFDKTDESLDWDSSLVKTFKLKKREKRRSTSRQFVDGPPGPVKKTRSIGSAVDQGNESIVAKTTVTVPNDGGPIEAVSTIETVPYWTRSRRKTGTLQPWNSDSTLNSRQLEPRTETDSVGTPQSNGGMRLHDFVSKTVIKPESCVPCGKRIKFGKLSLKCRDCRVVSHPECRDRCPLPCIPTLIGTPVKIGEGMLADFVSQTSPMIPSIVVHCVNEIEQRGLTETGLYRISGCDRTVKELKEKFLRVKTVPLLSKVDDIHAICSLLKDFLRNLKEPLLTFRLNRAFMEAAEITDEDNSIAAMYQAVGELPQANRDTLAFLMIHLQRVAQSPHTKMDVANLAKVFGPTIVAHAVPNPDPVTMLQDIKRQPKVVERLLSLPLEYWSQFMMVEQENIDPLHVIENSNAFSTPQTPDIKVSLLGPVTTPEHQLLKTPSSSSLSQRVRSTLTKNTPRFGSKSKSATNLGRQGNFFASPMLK
# [2] = Luminescence Cell-Based Dose Retest to Confirm Inhibitors of Cancer Stem Cells. [Related pubchem assays (depositor defined):AID2717, AID2721]; format: functional; settings: Homo sapiens
# Cytochrome P450 3A4 = Cytochrome P450 3A4 (Homo sapiens, UniProt P08684);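 further: CYP3A4 tested as one member of a cytochrome P450 panel screen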
# Cytochrome P450 3A4, sequence (P08684 whole entry): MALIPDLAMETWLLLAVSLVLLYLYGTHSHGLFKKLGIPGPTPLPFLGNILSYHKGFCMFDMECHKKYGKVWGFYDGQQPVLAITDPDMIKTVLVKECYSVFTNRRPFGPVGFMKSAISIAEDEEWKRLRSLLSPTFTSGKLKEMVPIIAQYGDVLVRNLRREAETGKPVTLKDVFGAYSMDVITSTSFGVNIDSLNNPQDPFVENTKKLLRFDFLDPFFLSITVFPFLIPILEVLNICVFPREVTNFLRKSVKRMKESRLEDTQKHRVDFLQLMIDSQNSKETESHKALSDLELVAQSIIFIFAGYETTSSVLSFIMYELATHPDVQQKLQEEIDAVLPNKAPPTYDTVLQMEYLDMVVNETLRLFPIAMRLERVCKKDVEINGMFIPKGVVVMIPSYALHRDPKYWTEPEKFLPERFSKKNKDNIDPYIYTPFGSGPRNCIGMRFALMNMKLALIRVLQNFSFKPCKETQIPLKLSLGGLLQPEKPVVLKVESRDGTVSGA
# [3] = Trypanosoma cruzi growth suppression in host cells – NIH3T3 host cells, beta-gal luminescence, confirmation (AID 2044); format: functional, cell-based;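 further: intracellular parasites grown in NIH/3T3 mouse fibroblasts as host cells; luminescent beta-galactosidase reporter signal from transgenic T. cruzi replicating inside host cells; inhibitors lower the luminescence signal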
# [4] = NIH3T3 cell viability loss – ATP luminescence, mouse fibroblasts, counter-screen, dose response (AID 2010); format: functional, cell-based;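 further: cells exposed to compound for about 90 hours before reading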
# H4 = assay: Luminescence Cell-Based Dose Response HTS to Identify Activators of 5'UTR Stem-Loop Driven Prion Protein mRNA Translation in H4 Neuroglioblastoma Cells. [Related pubchem assays: 1829 (Project Summary), 1814 (Primary HTS)]; format: functional; settings: Homo sapiens
# Cytochrome P450 2C19 = Cytochrome P450 2C19 (Homo sapiens, UniProt P33261); assay: Cytochrome panel assay with activity outcomes. Panel member name: p450-cyp2c19 Compounds with AC50 equal or less than 10 uM are considered active; format: functional
# Cytochrome P450 2C19, sequence (P33261 whole entry): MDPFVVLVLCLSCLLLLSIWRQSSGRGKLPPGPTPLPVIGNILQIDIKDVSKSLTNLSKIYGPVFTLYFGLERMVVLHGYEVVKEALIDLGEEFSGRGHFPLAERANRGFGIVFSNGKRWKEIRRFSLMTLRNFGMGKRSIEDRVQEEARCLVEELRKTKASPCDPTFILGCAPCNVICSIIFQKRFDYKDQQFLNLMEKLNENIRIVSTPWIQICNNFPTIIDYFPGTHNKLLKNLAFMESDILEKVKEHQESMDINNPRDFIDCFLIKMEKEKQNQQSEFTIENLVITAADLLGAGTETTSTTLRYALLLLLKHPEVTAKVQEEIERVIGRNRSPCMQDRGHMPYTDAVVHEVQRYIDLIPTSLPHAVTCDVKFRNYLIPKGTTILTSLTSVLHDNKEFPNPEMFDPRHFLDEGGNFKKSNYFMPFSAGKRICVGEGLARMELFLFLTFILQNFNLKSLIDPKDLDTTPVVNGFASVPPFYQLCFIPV
# Protein skinhead-1 = target: T2, Protein skinhead-1 (Caenorhabditis elegans, UniProt P34707); format: functional
# T2 sequence (P34707 whole entry): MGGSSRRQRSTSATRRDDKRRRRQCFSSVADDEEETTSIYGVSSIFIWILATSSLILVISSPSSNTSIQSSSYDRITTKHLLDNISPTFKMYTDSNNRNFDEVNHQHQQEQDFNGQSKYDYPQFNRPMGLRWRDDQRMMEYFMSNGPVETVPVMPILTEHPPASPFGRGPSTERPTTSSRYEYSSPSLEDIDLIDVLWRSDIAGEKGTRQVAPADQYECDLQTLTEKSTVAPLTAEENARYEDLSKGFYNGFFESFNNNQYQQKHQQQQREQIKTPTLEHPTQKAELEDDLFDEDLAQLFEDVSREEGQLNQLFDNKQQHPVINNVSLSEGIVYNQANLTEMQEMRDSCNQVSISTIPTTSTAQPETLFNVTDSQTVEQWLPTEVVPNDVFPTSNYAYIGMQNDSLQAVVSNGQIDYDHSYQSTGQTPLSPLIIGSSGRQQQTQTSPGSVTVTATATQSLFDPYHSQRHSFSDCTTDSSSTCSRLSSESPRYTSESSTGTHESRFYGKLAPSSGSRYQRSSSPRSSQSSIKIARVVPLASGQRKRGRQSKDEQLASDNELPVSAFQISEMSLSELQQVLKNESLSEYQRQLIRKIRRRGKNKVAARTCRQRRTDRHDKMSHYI
# Protein RecA = target: T3, Protein RecA (Mycobacterium tuberculosis, UniProt P9WHJ3); assay: Fluorescence Cell-Free Homogeneous Dose Retest to Identify Inhibitors of RecA-Intein Splicing Activity. [Related pubchem assays (depositor defined):AID2097, AID2223, AID489010, AID492950]; format: functional
# T3 sequence (P9WHJ3 whole entry): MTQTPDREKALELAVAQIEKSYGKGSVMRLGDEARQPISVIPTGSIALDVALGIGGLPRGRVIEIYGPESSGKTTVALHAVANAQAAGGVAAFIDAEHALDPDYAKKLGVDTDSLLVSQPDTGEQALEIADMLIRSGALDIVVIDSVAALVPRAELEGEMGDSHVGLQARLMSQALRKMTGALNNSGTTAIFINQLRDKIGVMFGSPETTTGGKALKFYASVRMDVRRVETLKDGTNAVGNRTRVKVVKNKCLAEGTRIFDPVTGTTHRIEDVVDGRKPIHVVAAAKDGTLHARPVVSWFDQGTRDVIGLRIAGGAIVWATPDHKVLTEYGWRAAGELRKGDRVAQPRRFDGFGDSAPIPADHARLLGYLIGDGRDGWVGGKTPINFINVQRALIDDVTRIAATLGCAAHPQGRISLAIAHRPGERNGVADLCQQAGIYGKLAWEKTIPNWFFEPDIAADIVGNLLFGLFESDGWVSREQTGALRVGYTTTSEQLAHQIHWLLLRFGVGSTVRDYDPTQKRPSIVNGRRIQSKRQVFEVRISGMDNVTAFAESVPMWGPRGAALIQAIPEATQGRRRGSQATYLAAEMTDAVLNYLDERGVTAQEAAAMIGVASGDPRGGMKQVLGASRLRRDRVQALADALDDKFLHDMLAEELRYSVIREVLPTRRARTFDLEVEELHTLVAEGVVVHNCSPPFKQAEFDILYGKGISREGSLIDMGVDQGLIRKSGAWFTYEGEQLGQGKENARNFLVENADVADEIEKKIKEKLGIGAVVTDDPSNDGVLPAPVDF
# [5] = system: Streptococcus sp. 'group A'; assay: Streptococcus pyogenes SK(-)GAS viability under kanamycin – luminescence, BacTiterGlo, confirmation, counter-screen for streptokinase expression inhibitor project, dose response (AID 1900); format: functional, organism-based
# Streptococcus = assay: GAS UMAA2166 growth inhibition – luminescence, BacTiterGlo, counter-screen for streptokinase expression inhibitor project, dose response (AID 1915); format: functional, organism-based;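 further: potency for reduction of bacterial viability or growth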
smiles,measurement,setting,value
Oc1ccc(/C=C/c2nc3ccccc3nc2O)cc1,IC50,[1],31.5 µM (active)
Cc1cccc(-c2nc(C#N)c(NC3CCCCC3)o2)c1,AC50,[2],2.45 µM (active)
CC[C@@H]1OC(=O)[C@H](C)[C@H](O[C@@H]2C[C@](C)(OC)[C@H](O)[C@H](C)O2)[C@H](C)[C@H](O[C@@H]2O[C@@H](C)C[C@@H](N(C)C)[C@@H]2O)[C@](C)(O)C[C@H](C)C(=O)[C@H](C)[C@H](O)[C@]1(C)O,AC50,Cytochrome P450 3A4,12.6 µM (inconclusive)
COc1ccc(CCNC(=O)CN(c2ccccc2OC)S(=O)(=O)c2ccc(C)cc2)cc1,EC50,[3],4.73 µM (active)
same,EC50,[4],19.3 µM (active)
Cc1ccc(C)c(S(=O)(=O)N2CCN(C(=O)CCCc3c[nH]c4ccccc34)CC2)c1,EC50,[3],4.01 µM (active)
same,EC50,[4],> 60 µM (not active)
CCCn1c(C)cc(C(=O)COc2ncnc3sccc23)c1C,EC50,H4,> 120 µM (not active)
CCOC(=O)C1C(=O)C=C(c2ccc(NS(C)(=O)=O)cc2)CC1c1ccco1 (stereo not drawn),AC50,Cytochrome P450 3A4,25.1 µM (inconclusive)
c1ccc(OCCCN2CCCC2)cc1,IC50,[1],159 µM (active)
CO[C@@]12C[C@@H](COC(=O)c3cncc(Br)c3)CN(C)[C@H]1Cc1cn(C)c3cccc2c13,AC50,Cytochrome P450 2C19; read-out: AC50,7.94 µM (inconclusive)
COc1ccc(/C=C2\SC(=S)N(CCC(=O)N(CCO)Cc3ccccc3)C2=O)cc1OC,EC50,[3],3.32 µM (active)
same,EC50,[4],> 60 µM (not active)
C=C1C/C(=C\C)C(=O)O[C@@H]2CCN3CC=C(COC(=O)[C@@]1(C)O)[C@H]23,AC50,Cytochrome P450 3A4,12.6 µM (inconclusive)
same,AC50,Cytochrome P450 2C19,inconclusive
CC(C)c1ccc(/C=C/C(=O)NC2=NCCS2)cc1,AC50,[2],1.99 µM (active)
CCCSc1nc2sc3c(c2c(=O)n1-c1ccc(OC)cc1)CCN(C)C3,EC50,[3],0.12 µM (active)
same,EC50,[4],> 30 µM (not active)
COCCNC(=O)C1CCN(S(=O)(=O)N2CCC3(CC2)OCCO3)CC1,AC50,Cytochrome P450 2C19; read-out: AC50,15.8 µM (inconclusive)
O=[N+]([O-])c1ccc(OCc2cnc(Cl)s2)cc1,IC50,Protein skinhead-1,50.3 µM (inactive)
O=C(CNCCO)N1CCc2ccccc21,AC50,Cytochrome P450 3A4,1.41 µM (inconclusive)
Cc1c(-c2ccccc2)sc(N)c1C(=O)N1CCOCC1,IC50,[1],41.5 µM (active)
COc1cc(OC)cc(C(=O)N2CCN(Cc3ccc4c(c3)OCO4)CC2)c1,IC50,[1],188 µM (active)
COc1cccc(Nc2ncc3nc(-c4cc(F)cc(F)c4)c(=O)n(C[C@H]4CCCO4)c3n2)c1,AC50,Cytochrome P450 3A4,6.31 µM (inconclusive)
O=C(CN1CCN(S(=O)(=O)c2ccc(Br)cc2)CC1)Nc1ccccc1C(=O)c1ccccc1,EC50,[3],1.08 µM (active)
same,EC50,[4],> 60 µM (not active)
Cc1cccc(NC(=O)Nc2ccc3c(c2)OCO3)n1,EC50,H4,9.72 µM (active)
CCCCc1ccc(NC(=O)CSc2nc(=O)n(CCN(CC)CC)c3c2CCC3)cc1,AC50,[2],11.2 µM (active)
Nc1ccc2[nH]cc(CCC(=O)O)c2c1,AC50,Cytochrome P450 2C19,inconclusive
CC(=O)NCCNc1ccnc(-c2ccccc2C)n1,AC50,Cytochrome P450 3A4,20 µM (inconclusive)
Cc1ccc2cc3cc(C(=O)N4CC(C)CC(C)C4)oc3nc2c1 (stereo not drawn),IC50,Protein skinhead-1,> 100 µM (inactive)
COc1cc(CCN2C(=O)c3cccc4cccc(c34)C2=O)c(S(=O)(=O)N2CCCCCC2)cc1OC,EC50,[3],1.9 µM (active)
same,EC50,[4],> 30 µM (not active)
COCCCn1c(=O)c2ccccc2n(Cc2cccc(C)c2)c1=O,IC50,Protein skinhead-1,> 100 µM (inactive)
N#CC1=C(Nc2ccccc2Cl)SC(c2ccccc2O)NC1=O (stereo not drawn),IC50,[1],129 µM (active)
COCCCN=C(S)NC1CC2CCCC(C1)N2Cc1cccs1 (stereo not drawn),AC50,Cytochrome P450 2C19; read-out: AC50,1.26 µM (inconclusive)
COc1ccccc1CN1CCCC2(CCN(C(=O)c3csnn3)CC2)C1,AC50,Cytochrome P450 3A4,15.8 µM (inconclusive)
Cc1sc(-n2c(C)cc(/C=C3\SC(=S)NC3=O)c2C)c(C#N)c1C,AC50,[2],2.5 µM (active)
C=CCN1C(=O)C(CC(=O)Nc2ccc(OCCC)cc2)N(CCCN2CCN(Cc3ccccc3)CC2)C1=S (stereo not drawn),EC50,[3],3.01 µM (active)
same,EC50,[4],> 60 µM (not active)
O=C(Nc1cc(-c2ccccc2)n[nH]1)c1ccccc1,IC50,Protein skinhead-1,> 100 µM (inactive)
O=C(C1=C(O)C(=O)N(c2cccc(Cl)c2)C1c1ccccc1[N+](=O)[O-])c1ccccc1 (stereo not drawn),AC50,Cytochrome P450 3A4,12.6 µM (inconclusive)
O=C(NC1CONC1=O)OCC(Cl)(Cl)Cl (stereo not drawn),AC50,[2],> 195 µM (inactive)
COc1ccccc1N=C(S)NNC(=O)c1c(Cl)c(C)nn1C,AC50,Cytochrome P450 2C19,inconclusive
O=C(c1cc(-c2ccncc2)nc2ccc(Br)cc12)N1CCN(Cc2ccc3c(c2)OCO3)CC1,EC50,[3],0.384 µM (active)
same,EC50,[4],54.9 µM (active)
O=C(Nc1ccccc1)c1ccc(N2CCN(c3ccccc3)CC2)c(S(=O)(=O)N2CCOCC2)c1,EC50,[3],2.04 µM (active)
same,EC50,[4],> 60 µM (not active)
COc1cc(CNC(C)c2ccccc2)cc(Br)c1OCc1ccccc1 (stereo not drawn),AC50,[2],5.92 µM (active)
CCOc1ccc2c(c1)-c1c(ssc1=S)C(C)(C)N2,EC50,Protein RecA,3.17 µM (active)
COc1ccc(CNc2ncc(-c3ccccc3)n2C)c(OC)c1OC,IC50,[1],65.7 µM (active)
Cc1cnc(CNc2ccnc(-c3ccccc3C)n2)cn1,AC50,Cytochrome P450 3A4,20 µM (inconclusive)
COc1cc(N=Nc2ccc(C)cc2S(N)(=O)=O)c(C)cc1N,IC50,[1],76.2 µM (active)
Sc1nnc2sc3ccccc3n12,IC50,[1],35.8 µM (active)
COc1ccc(NC2CCCN(C(=O)CCc3scnc3C)C2)cc1 (stereo not drawn),IC50,[1],96.1 µM (active)
CSc1ccccc1C(=O)NCCOc1cccc(C)c1,IC50,Protein skinhead-1,> 100 µM (inactive)
O=C(CN(Cc1ccccc1Cl)C(=O)c1ccc(CN2CCOCC2)o1)NCC1CCCO1 (stereo not drawn),AC50,Cytochrome P450 2C19; read-out: AC50,10 µM (inconclusive)
CCn1cc(C(=O)O)c(=O)c2cc(F)c(N3CCN(S(=O)(=O)c4ccc(NC(C)=O)cc4)CC3)cc21,EC50,[5],5.05 µM (active)
same,EC50,Streptococcus,7.08 µM (active)
O=C(O)c1ccccc1C(=O)Nc1ccc(Nc2ccccc2)cc1,IC50,[1],55.5 µM (active)
Cc1ccc(/C=N/Nc2cc(C)nc(NCc3ccccc3)n2)cc1,AC50,[2],6.45 µM (active)
Oc1ccccc1/C=N/NP(=S)(c1ccccc1)c1ccccc1,AC50,[2],2.69 µM (active)
O/N=C/c1ccnc(SCc2ccc(Cl)cc2)n1,AC50,[2],3.58 µM (active)
